Experiment [1] deals with monocyte-derived dendritic cells (moDCs). The experiment can be described thus: AAV2 vector transduction of monocyte-derived dendritic cells (moDCs). The class given is cell-based, human. The settings on record: 50 μM, WT scAAV2-EGFP, 48 hrs p.i. The protocol:
Cells and Antibodies. HEK293, HeLa and NIH3T3 cells were obtained from the American Type Culture Collection and maintained as monolayer cultures in DMEM (Invitrogen, Inc.) supplemented with 10% FBS (Sigma-Aldrich Co.) and antibiotics (Lonza, Inc.). Leukapheresis-derived peripheral blood mononuclear cells (PBMCs) (AllCells) were purified on Ficoll-Paque (GEHeathCare), resuspended in serum-free AIM-V medium (Lonza, Inc.), and semi-adherent cell fractions were incubated for 7 days with recombinant human IL-4 (500 U/mL) and GM-CSF (800 U/mL) (R&D Systems). Cell maturation was initiated with a cytokine mixture including 10 ng/mL TNF-α, 10 ng/mL IL-1, 10 ng/mL IL-6, and 1 mg/mL PGE2 (R&D Systems) for 48 hrs. Prior to EGFP expression cells were characterized for co-stimulatory molecules expression to ensure that they met the typical phenotype of mature dendritic cells (mDC) (CD80, RPE, murine IgG1; CD83, RPE, murine IgG1; CD86, FITC, murine IgG1; Invitrogen, Inc.). (Jayandharan et al., 2011)
Recombinant AAV Vector Transduction Assays In Vitro. […] Transgene expression was assessed as the total area of green fluorescence (pixel2) per visual field (mean±SD) as described previously (Markusic et al., 2011; Jayandharan et al., 2011). Analysis of variance was used to compare test results and the control, which were determined to be statistically significant.

For experiment [2], the system named is human CD34+ cells. The experiment can be described thus: Ex vivo transduction of human CD34+ cells by AAV serotype and tyrosine-mutant AAV6 vectors. The class given is cell-based. The protocol:
Human bone marrow CD34^+ and umbilical cord blood CD34^+ cells either were purchased from All-Cells (Berkeley, Calif., USA), or were obtained under an institutional review board-approved protocol, and maintained in either StemSpan SFEM medium ([…] Technologies, Inc, Vancouver, BC, CANADA) or IMDM with 10 ng/mL rhIL6 (PeproTech), 10 ng/mL rhIL3 (PeproTech, Rocky Hill, N.J., USA) and 1 ng/mL rhSCF (R&D Systems, Minneapolis, Minn., USA). CD34^+ cell purity was determined by flow cytometry and was >90%. Mouse HSCs, which were positive for Sca-1 and c-kit and negative for lineage markers (c-kit^+, Sca-1^+, lin^−), were isolated from 4-month-old male C57BL/6 mice as previously reported with slight modification. Briefly, femurs and tibias were obtained from C57BL/6 mice, and bone marrow cells were flushed from the bones with phosphate-buffered saline (PBS). […] APC-conjugated CD117 (c-kit) antibody and Alexa Fluor 700 conjugated Sca-1 antibody (Miltenyi Biotec Inc) were used during fluorescence-activated cell sorting (FACS). […]
Ex vivo transduction of HSCs. […] Mock-infected or infected cells were infused into recipient mice immediately after infection, or examined for transgene expression by fluorescence microscopy or by flow cytometry (Accuri C6; BD Biosciences) 48-72 hrs after infection.

Experiment [3] relates to Hep293TT cells. As to the kind of experiment: AAV3 vector transduction assay in Hep293TT cells. Format: cell-based, human. The protocol: (§1) AAV Vector Transduction Assays. Huh7 or HeLa cells were seeded in 96-well plates at a concentration of 5,000 cells per well in complete DMEM medium. AAV infections were performed in serum- and antibiotic-free DMEM medium. Hep293TT cells were seeded in 96-well plates at a concentration of 10,000 cells per well in complete RPMI medium. The infections were performed in serum- and antibiotic-free RPMI medium. The expression of EGFP was analyzed by direct fluorescence imaging 72 hrs' post-transduction.

Experiment [4] concerns Huh7 cells. The experiment can be described thus: AAV3 vector transduction assay in Huh7 cells. Format: cell-based, human. The settings on record: increasing concentrations, 2 hr. The protocol: as §1
Experiment [5] deals with HeLa cells. The experiment can be described thus: Recombinant AAV2 vector transduction assay in vitro (EGFP imaging). The class given is cell-based, human. Here is the method:
Recombinant AAV2 Vector Transduction Assays in Vitro. Approximately 1×10^5 HeLa cells were used for transductions with recombinant AAV2 vectors. The transduction efficiency was measured 48-hr post-transduction by EGFP imaging using fluorescence microscopy. Images from three to five visual fields were analyzed quantitatively by ImageJ analysis software (NIH, Bethesda, Md., USA). Transgene expression was assessed as total area of green fluorescence (pixel^2) per visual field (mean±SD). Analysis of variance (ANOVA) was used to compare between test results and the control and they were determined to be statistically significant.
The transduction efficiency of each of the tyrosine-mutant vectors was analyzed and compared with the WT scAAV2-EGFP vector in HeLa cells in vitro under identical conditions. […] Specifically, the transduction efficiency of Y444F, Y500F, Y730F vectors was ˜8- to 11-fold higher than the WT vector.
In a second study, HeLa cells, either mock-treated or treated with Tyr23, a specific inhibitor of EGFR-PTK, or MG132, a proteasome inhibitor, both known to increase the transduction efficiency of AAV vectors, were mock-infected or infected with the WT or Y730F scAAV2-EGFP vectors.

The test system of experiment [6] is HeLa cells. As to the kind of experiment: scAAV2 transduction of HeLa cells with MG132 or Tyr23 (positive control). The class given is cell-based, human. As to conditions: MG132 5 μM; Tyr23 200 μM. The protocol:
as §1
Proteasome Inhibitors Increase the Transduction Efficiency of AAV3 Vectors. […] To evaluate whether MG132 can also improve AAV3 trafficking in target cells, Huh7, a well-established human hepatocellular carcinoma cell line (Nakabayashi et al., 1982), and Hep293TT, a recently established human hepatoblastoma cell line (Chen et al., 2009), were either mock-treated or treated with increasing concentrations of MG132. […] Transgene expression was determined by fluorescence microscopy 72 hrs post-transduction.
Previous studies have also shown that inhibition of EGFR-PTK signaling by Tyrphostin 23 (Tyr23), a specific inhibitor of EGFR-PTK (May et al., 1998), modulates the Ub/proteasome pathway, which in turn, facilitates intracellular trafficking and transgene expression mediated by AAV2 vectors (Zhong et al., 2007). […] Transgene expression was determined 72 hr post-transduction.

The subject of experiment [7] is HEK293 cells. The experiment can be described thus: AAV2 vector transduction assay in HEK293 cells (serine mutants, kinase inhibitors). The class given is cell-based, human. As to conditions: 50 μM, 1 hr; 1,000 vgs per cell. The protocol:
Recombinant AAV Vector Transduction Assays In Vitro. HEK293 or monocyte-derived dendritic cells (moDCs), were transduced with AAV2 vectors with 1,000 vgs/cell or 2,000 vgs/cell respectively, and incubated for 48 hr. Alternatively, cells were pretreated with 50 μM of selective serine/threonine kinase inhibitors 2-(2-hydroxyethylamino)-6-aminohexylcarbamic acid tert-butyl ester-9-isopropylpurine (for CaMK-II), anthra[1,9-cd]pyrazol-6(2H)-one, 1,9-pyrazoloanthrone (for JNK), and 4-(4-fluorophenyl)-2-(4-methylsulfinylphenyl)-5-(4-pyridyl)1H-imidazole (for MAPK) (CK59, JNK inhibitor 2, PD 98059, Calbiochem), 1 hr before transduction. Transgene expression was assessed as the total area of green fluorescence (pixel2) per visual field (mean±SD) as described previously (Markusic et al., 2011; Jayandharan et al., 2011). Analysis of variance was used to compare test results and the control, which were determined to be statistically significant.

The text below walks through data of patent publication US12358954B2, “Capsid-modified rAAV vector compositions and methods therefor” (priority 2012, dated 2025).

Peptide text beside a SMILES is read from it. * marks the point of attachment. Cbz = O=C(OCc1ccccc1)*

With `O=C1c2ccccc2-c2n[nH]c3cccc1c23` [JNK inhibitor, anthra[1,9-cd]pyrazol-6(2H)-one, 1,9-pyrazoloanthrone], in experiment [1], the “increase of EGFP expression levels by inhibitor pre-treatment” value is around 2 fold.

Consider “epidermal growth factor: epidermal growth factor”, for which the “effect on transduction efficiency of AAV6 vectors in CD34+ cells” value in experiment [2] is “no effect”.

For `CC(C)C[C@@H](C=O)NC(=O)[C@H](CC(C)C)NC(=O)[C@H](CC(C)C)NC(=O)OCc1ccccc1` [MG132] (Cbz-Leu-Leu-Leu-aldehyde), the “amounts of internalized viral DNA in presence or absence of inhibitor” value in experiment [3] is reported as “no significant difference”. Moreover, the “transduction efficiency of scAAV3 vectors after treatment” value in experiment [3] (2 hr treatment) and in experiment [4] was “dose-dependent increase” each time. Further, in experiment [5], the “increase in transduction efficiency of WT scAAV2-EGFP by pretreatment” value is on record as around 6 fold. The “transduction efficiency of scAAV2 vectors after pretreatment” value in experiment [6] is given as “significantly increased”.

For `C[S+]([O-])c1ccc(-c2nc(-c3ccc(F)cc3)c(-c3ccncc3)[nH]2)cc1` (centres unmarked) [p38 MAPK inhibitor, 4-(4-fluorophenyl)-2-(4-methylsulfinylphenyl)-5-(4-pyridyl)1H-imidazole], the “transduction efficiency of ssAAV2 and scAAV2 vectors after inhibitor pre-treatment” value in experiment [7] is given as “most effective”.
